Data taken from publication PMC9926234, “Iterative computational design and crystallographic screening identifies potent inhibitors targeting the Nsp3 macrodomain of SARS-CoV-2” (Proceedings of the National Academy of Sciences of the …, 2023).
“And” between values parts separate entries of the source, which are not always exact repeats. Identical values can stand only once. Like-named read-outs stand apart in the source and are kept apart here.

Experiments:
[1] = system: P-glycoprotein (human MDR1); assay: in vitro; conditions: dog
Protocol: Permeability of compounds was assessed using canine MDR1 knockout and human MDR1 knockin MDCKII cells (MDR1-MDCKII) (Sigma-Aldrich, MTOX1303) in confluent monolayers expressing P-glycoprotein (P-gp) at Enamine biological services Bienta LTD (Kyiv, Ukraine).
Canine MDR1 knockout, human MDR1 knockin MDCKII cell (MDR1-MDCKII) (Sigma-Aldrich,
MTOX1303) suspension (400 μl) was added to each well of high throughput screening multiwell
insert system plates. Test compounds were prepared as 20 mM DMSO stocks. The test compound
(300 µl) was dissolved in transport buffer (9.5 g/l Hanks’ balanced salt solution and 0.35 g/l NaHCO3
wells whereas 1000 µl of transport buffer was added to transport analysis plate wells in order to
determine apical (A) to basolateral (B) transport. Basolateral to apical transport was measured by
adding 1000 µl of the test compound solution into the transport analysis plate wells whereas 300
µl of buffer was used to fill the filter plate wells.
were taken from the donor and receiver compartments for LC-MS/MS analysis. Samples were
mixed with acetonitrile followed by protein sedimentation by centrifugation at 1000 rpm for 10 min.
HPLC coupled with tandem mass spectroscopy was performed using the Shimadzu Prominence
HPLC system coupled with the API 5000 (PE Sciex) spectrometer. Both the positive and negative
ion modes of the TurboIonSpray ion source were used. The apparent permeability (Papp) was
computed using the equation 1, where VA is the volume of transport buffer in acceptor wel, Area is
the surface area of the insert, Time is the assay time, [drug]acc is the peak area of test compound
in acceptor well, and [drug]initial,d is the initial amount of the test compound in a donor well.

[2] = biological target: T1, SARS-CoV-2 NSP3 Mac1 (Severe acute respiratory syndrome coronavirus 2, UniProt P0DTD1); assay: biochemical; type: binding; conditions: for IC50: read-out: IC50; for Ki: read-out: Ki***
[3] = biological target: T2, TARG1 (Homo sapiens, UniProt Q9Y530); assay: adapted HTRF-based peptide displacement assay (off-target); type: binding; conditions: versus TARG1, in words
T2 construct: Targ1_HTRF; HTRF assay; pET22b(+); His6, TEV; 1-153; made in house
T2 sequence (Q9Y530 with tags, fused parts or gaps): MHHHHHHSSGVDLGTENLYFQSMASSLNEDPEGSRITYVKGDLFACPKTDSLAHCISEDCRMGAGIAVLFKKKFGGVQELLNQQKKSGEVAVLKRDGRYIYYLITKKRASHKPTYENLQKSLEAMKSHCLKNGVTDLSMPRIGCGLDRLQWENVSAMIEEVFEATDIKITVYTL

[4] = biological target: T3, MacroD2 (Homo sapiens, UniProt A1Z1Q3); assay: as above; type: binding; conditions: versus MacroD2, in words
T3 construct: MacroD2_HTRF; HTRF assay; pET22b(+); His6, TEV, Avi; made in house
T3 sequence (A1Z1Q3 with tags, fused parts or gaps): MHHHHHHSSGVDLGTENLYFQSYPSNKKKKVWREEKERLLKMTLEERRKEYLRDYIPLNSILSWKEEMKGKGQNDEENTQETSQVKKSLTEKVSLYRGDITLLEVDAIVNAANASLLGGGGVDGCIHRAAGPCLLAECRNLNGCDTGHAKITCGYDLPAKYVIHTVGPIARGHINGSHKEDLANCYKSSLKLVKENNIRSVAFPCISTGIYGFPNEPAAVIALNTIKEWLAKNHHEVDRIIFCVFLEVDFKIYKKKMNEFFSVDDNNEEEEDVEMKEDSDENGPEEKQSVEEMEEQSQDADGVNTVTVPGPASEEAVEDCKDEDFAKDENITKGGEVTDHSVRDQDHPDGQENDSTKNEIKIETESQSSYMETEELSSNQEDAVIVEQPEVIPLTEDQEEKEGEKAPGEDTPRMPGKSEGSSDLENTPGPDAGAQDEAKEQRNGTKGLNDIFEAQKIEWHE

[5] = biological target: T1, SARS-CoV-2 NSP3 Mac1; type: binding
[6] = biological target: T1, SARS-CoV-2 NSP3 Mac1; type: binding; set-up: contains a conserved macrodomain enzyme (Mac1)
Summary of the method: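 ΔTma values are thermal shifts relative to a co-located DMSO-only control, read with 5 µM Fluorescent Yellow dye. Each compound was tested in triplicate over seven concentrations (two-fold steps, top 1,000 or 100 μM). Spearman correlation of concentration versus ΔTma tested whether the shift was dose-responsive.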

[7] = biological target: T1, SARS-CoV-2 NSP3 Mac1; assay: biochemical; set-up: HTRF ADPr-peptide displacement assay with Mac1, dose-response IC50; conditions: read-out: IC50 [µM] / 0.5, 1.2, 1.4
[8] = biological target: T1, SARS-CoV-2 NSP3 Mac1; set-up: contains a conserved macrodomain enzyme (Mac1); differential scanning fluorimetry, maximum thermal upshift; conditions: binder
[9] = biological target: T1, SARS-CoV-2 NSP3 Mac1; set-up: contains a conserved macrodomain enzyme (Mac1); Differential scanning fluorimetry of Mac1, maximum thermal upshift; conditions: maximum shift over tested concentrations; binder
[10] = system: SARS-CoV-2 NSP3 Mac1; assay: Overall hit call (binding in crystallographic soaking or the HTRF-based binding assay)
Excerpt: Supplement pnas.2212931120.sd01.xlsx, sheet "Compound Summary" | column: HIT*

[11] = biological target: T1, SARS-CoV-2 NSP3 Mac1; set-up: method as in PMID 33853786; conditions: cited from earlier work
[12] = PanDDA event map background density correction, crystal soak, compound concentration 100 mM
[13] = PanDDA event map, 1 minus background density correction, crystal soaking of Mac1
[14] = PanDDA event map, crystal soak, Compound_concentration 100 mM, Echo_dispense_volume 40 nl
[15] = crystal soak, Compound_concentration 100 mM, Echo_dispense_volume 40 nl, PanDDA run (background map) dmso_34, nohits_35 or nohits_62
[16] = ligand modeled in the crystal structure, crystal soak, compound concentration 100 mM

O=C(Nc1ccc(C(=O)NC2c3cccc(O)c3CC2C(=O)O)cc1)NC1CC1 (centres unmarked) [Z8539]
Papp A→B at 90 min, 10 µM ([1]; MDCK-MDR1, pH 7.4): 1.1 ± 0.1 ×10⁻⁶ cm/s | Papp B→A at 90 min, 10 µM ([1]; MDCK-MDR1, pH 7.4): 0.5 ×10⁻⁶ cm/s | Papp at 90 min, 10 µM ([1]; MDCK-MDR1, pH 7.4, cell permeability, MDCK cells, direction not given): 1.1 ×10⁻⁶ cm/s

O=C(NC1c2cccc(O)c2CC1C(=O)O)c1ccc2[nH]c(CO)nc2c1 (centres unmarked) [Z8539_0002]
IC50 ([2]; HTRF ADPr-peptide displacement from SARS-CoV-2 Mac1): 1.3 to 6.7 µM | IC50 ([2]; HTRF): 1.3 µM and 6.7 µM | Ki ([2]; Ki estimation from HTRF-derived IC50, Cheng-Prusoff, peptide 400nM, Kd 2.68µM): 1.1 µM and 5.8 µM | selectivity for viral Mac1 over human macrodomain [3]: selective for viral Mac1 | selectivity for viral Mac1 over human macrodomain [4]: selective for viral Mac1 | 1-BDC ([5]; PanDDA 1-BDC value of the event, crystal soak, compound concentration 100 mM, per dataset): 0.26 | 1-BDC [5, 12]: 0.19 | 1-BDC [5, 13]: 0.29 | 1-BDC (PanDDA) [5, 13]: 0.19 | 1-BDC [5, 14]: 0.29 | PanDDA hit? [5, 15]: TRUE | PanDDA hit? ([5]; crystal soak, compound concentration 100 mM, per dataset): TRUE | Modeled? ([5]; ligand modeled from this dataset, compound concentration 100 mM, Echo dispense volume 40 or 80 nl): TRUE | Modeled? [5, 16]: TRUE | HIT* ([5]; true hit = binding in crystallographic soaking or the HTRF-based binding assay): Y | Papp A→B ([1]; MDCK-MDR1, pH 7.4): 0.8 ± 0.2 ×10⁻⁶ cm/s | Papp B→A ([1]; MDCK-MDR1, pH 7.4): 1.4 ± 1 ×10⁻⁶ cm/s | Spearman est (compound concentration vs apparent Tm) ([6]; DSF dose responsiveness, 1 µM nsp3 mac1, adj p given): 0.74 | DSF max dTma ([6]; maximal thermal upshift): 5.39 ˚C

O=C(NC1c2cccc(O)c2CC1C(=O)O)c1cnc2c(c1)CCCN2 (centres unmarked) [Z8539_0006, 8539_0006]
IC50 [7]: 168 µM | DSF max dTma [8]: 0 degC

O=C(NC1c2cccc(O)c2CC1C(=O)O)c1cnc(NC2CCOCC2)cn1 (centres unmarked) [Z8539_0007, 8539_0007]
IC50 [7]: 6.4 µM | DSF max dTma [9]: 3.42 °C

O=C(NC1c2cccc(O)c2CC1C(=O)O)c1ccc(NCC2CC2)nc1 (centres unmarked) [Z8539_0009, 8539_0009]
IC50 [7]: 17.1 µM | DSF max dTma [9]: 2.03 °C

O=C1COc2cc(C(=O)NC3c4cccc(O)c4CC3C(=O)O)ccc2N1 (centres unmarked) [Z8539_0014, 8539_0014]
IC50 [7]: 27.9 µM | DSF max dTma [9]: 1.83 °C

O=C(Nc1ccc(C(=O)NC2c3ccccc3CC2C(=O)O)cc1)NC1CC1 (centres unmarked) [Z8539_0029, 8539_0029]
IC50 [7]: 4.8 µM | DSF max dTma [9]: 3.66 °C

O=C(Nc1ccc(C(=O)N[C@H]2c3ccccc3CC[C@H]2C(=O)O)cc1)NC1CC1 [Z8539_0030, 8539_0030]
IC50 [7]: 5.9 µM | DSF max dTma [9]: 4.92 °C

O=C(NC1c2cccc(O)c2CC1C(=O)O)c1ccc2[nH]cnc2c1 (centres unmarked) [Z8539_2001]
binding to Mac1 in the HTRF assay, result in words [2]: did not affect the binding affinity | IC50 ([2]; HTRF ADPr-conjugated peptide displacement): 5.4 µM | Ki [2]: 4.7 µM | selectivity for viral Mac1 over human macrodomain [3]: selective for viral Mac1 | selectivity for viral Mac1 over human macrodomain [4]: selective for viral Mac1 | 1-BDC [5, 12]: 0.23 and 0.42 | 1-BDC (PanDDA) [5, 13]: 0.23 | 1-BDC [5, 14]: 0.21 | PanDDA hit? [5, 15]: TRUE | Modeled? [5, 16]: TRUE | Refined occupancy ([5]; ligand occupancy after refinement (phenix.refine), crystal soaking of Mac1): 46 | HIT* [10]: Y | Papp A→B ([1]; MDCK-MDR1, pH 7.4): 1.1 ± 0.1 ×10⁻⁶ cm/s | Papp B→A ([1]; MDCK-MDR1, pH 7.4): 0.5 ×10⁻⁶ cm/s

Nc1ncnc(N2CCC(Oc3ccncc3)C2)c1Cl (centres unmarked) [Z9710, ZINC000302059710]
DSF max dTma [8]: 0 degC

Nc1ccc(C(=O)O)cc1 [ZINC920, 4-aminobenzoic acid]
binding to Mac1 in the fragment screen, result in words [11]: did not bind
